{
  "source": "patent US10071102B2",
  "about": "“Injectable mirtazapine for treating appetite loss and nutritional disorders in cats” (VIRBAC, priority 2013, dated 2018)",
  "system": "appetite of cats",
  "experiment": "Food consumption (appetite) of stressed healthy cats after dose administration",
  "type": "in vivo, cat",
  "conditions": "subcutaneous injection 3.75 mg vs oral 3.75 mg",
  "source_text": "The purpose of these tests is to evaluate the effect of administration of mirtazapine by subcutaneous injection on the appetite of cats as compared to dose administration by the oral route (positive control) and a control (injection of saline solution, negative control). The healthy cats selected were previously acclimated for at least seven days prior to testing; during this period, they were examined by a veterinarian. They were then divided into three groups of two cats each according to a cross-over experimental design, with each cat receiving each of the 3 treatments according to a predetermined sequence: • 0.5 ml of saline (0.9% sodium chloride) was administered by subcutaneous injection in the interscapular area to the T0 group which represents the negative control; • the group T1 received a subcutaneous injection, in the interscapular area, of 0.5 ml of the tested formulation of mirtazapine (represents a dose administration of 3.75 mg of mirtazapine); • the group T3 instead received 0.25 ml (represents a dose administration of 3.75 mg of mirtazapine) of the liquid formulation by means of forced administration (syringe) in the mouth and represents the positive control group. […] The food consumption is represented in FIGS. 2A (food consumption measured at each point) and 2B (cumulative food consumption).",
  "data": [
    {"compound": "CN1CCN2c3ncccc3Cc3ccccc3C2C1", "note": "(centres unmarked) [mirtazapine, 1,2,3,4,10,14b-hexahydro-2-methylpyrazino(2,1-a)pyrido(2,3-c)benzazepine]", "values": [
      {"measurement": "duration of appetite induction compared with oral administration", "result": "inducing appetite for a longer time period"},
      {"measurement": "increase in appetite (food consumption) compared with same dose by oral route", "result": "as effective as the administration of the same dose by oral route"}
    ]}
  ]
}
